What all share (test): NCI anticancer screen, dose series, 48 h
Test [1] relates to SR leukemia.
For test [2], the system named is HL-60(TB) leukemia.
The test system of test [3] is MALME-3M melanoma.
The subject of test [4] is K-562 leukemia.
Test [5] has as its system HCC-2998 colon.
Test [6] relates to KM12 colon.
The subject of test [7] is HT29 colon.
In test [8] the test system is SNB-19 CNS.
The subject of test [9] is NCI-H460 lung.
Test [10] has as its system SW-620 colon.

These results are taken from PubChem BioAssay (NCI).

Each structure is given as a SMILES string.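 Results reflect a 48-hour exposure of cells in 96-well plates to compound at five concentrations. GI50: concentration for 50% inhibition of growth. The concentration for full growth arrest is given as TGI.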

`CC1CCP(=O)(c2ccccc2)c2ccccc21` (stereo not drawn): the TGI in test [1] was 96.9 µM; in test [2] it was 41.1 µM; in test [3], > 100 µM; in test [4], 62.9 µM; in test [5], > 100 µM; in test [6] it was > 100 µM. In addition, the values for the TGI in test [7], in test [8] and in [9] were > 100 µM, > 100 µM and 80.3 µM, respectively.

As to `COc1cc(/C=C\c2ccccc2)cc(OC)c1OC`, the TGI is 26.7 µM in test [1]; > 100 µM in test [10]; 6.34 µM in test [2]; 19.7 µM in test [3]; > 43.2 µM in test [4]; 48.5 µM in [5]. The TGI was > 73.1 µM in test [6], 14.1 µM in [7], > 77.5 µM in test [8] and 27.3 µM in test [9].

As for `COc1cc2c(c(OC)c1OC)-c1ccc(N)c(=O)cc1[C@@H](NC(C)=O)CC2`, the GI50 is < 0.01 µM in [1]; < 0.01 µM in test [10]; 0.0171 µM in test [2]; 48.8 µM in test [3]; < 0.014 µM in test [4]; 0.0279 µM in [5]. In addition, the GI50 in test [6] is < 0.01 µM; in test [7] it was < 0.0159 µM; in test [8], 0.914 µM; in [9], 0.0294 µM. For the same compound, the TGI in test [1] was > 100 µM; in test [10], > 100 µM; in test [3] it was > 100 µM; in test [4], > 100 µM; in test [6] it was 0.186 µM; in test [7], 0.0688 µM. For the same compound, the TGI in test [8] is > 100 µM.

On to `O=C1c2ccc([N+](=O)[O-])cc2-c2c1c1ccccc1c(=O)n2CCCNCCCNCCCn1c2c(c3ccc([N+](=O)[O-])cc3c1=O)C(=O)c1ccccc1-2`, for which the GI50 in test [1] was 0.0306 µM; in test [10], 0.81 µM; in test [2], 2.09 µM; in test [3], 5.51 µM; in [4], 0.539 µM; in [5], 3.08 µM. Also, the GI50 is 1.53 µM in [6], 0.182 µM in [7], 0.985 µM in test [8] and 2.34 µM in test [9]. For the same compound, the TGI in test [1] was determined as 2.83 µM; in test [10] it was 3.07 µM; in test [2], 7.48 µM; in [3] it was 41.7 µM; in test [4] it was 1.97 µM; in test [5] it was 9.77 µM. Besides, the TGI came out at 4.31 µM in test [6], 1.48 µM in test [7], 6.54 µM in test [8] and 14.6 µM in test [9].

Take `CCOC(=O)C1(Br)C(c2ccccc2)NC(=O)NC1(C)Br` (stereo not drawn): the TGI in [1] was > 100 µM; in test [2] it was 46.4 µM; in test [3], > 100 µM; in test [4], > 94.5 µM; in [5], > 100 µM; in [6] it was > 100 µM. Also, the results for the TGI in test [7], in test [8] and in [9] were > 100 µM, > 66 µM and > 100 µM, respectively.

Regarding `O=C(c1ccc2ccccc2c1)c1c(C(F)(F)F)n([O-])c2cc(F)c(F)cc2[n+]1=O`, the GI50 in test [1] was 0.45 µM; in [2], 1.37 µM; in test [3], 1.13 µM; in test [4], 0.314 µM; in [5], 2.42 µM; in [6], 0.937 µM. Moreover, the results for the GI50 in [7], in test [8] and in test [9] were 2.34 µM, 2 µM and 3.74 µM, respectively. For the same compound, the TGI in [1] turned out to be 3.18 µM; in test [2], 3.55 µM; in test [3], 2.65 µM; in test [4], 1.44 µM; in test [5] it was 7.65 µM; in test [6], 8.1 µM. Also, the TGI in test [7] was found to be 5.29 µM; in [8], 4.1 µM; in test [9], 88.9 µM.

Take `CN1CCN(c2ccc(NC(=O)c3nc4ccc5[nH]ncc5c4c4c3CCCC4)cc2C(F)(F)F)CC1`: the GI50 is 0.9 µM in test [1]; 0.947 µM in test [10]; 0.969 µM in test [2]; 0.76 µM in [3]; 0.968 µM in test [4]; 1.1 µM in test [5]. Besides, the GI50 in test [6] is 1.47 µM; in test [7], 1.02 µM; in test [8], 1.39 µM; in test [9], 0.956 µM. Also, the TGI in [1] is 2.81 µM; in test [10] it was 2.2 µM; in test [2] it was 2.1 µM; in test [3], 1.64 µM; in test [4] it was 2.11 µM; in test [5] it was 2.99 µM. Besides, the TGI in test [6] is 5.27 µM; in [7], 3.06 µM; in [8], 4.58 µM; in test [9], 1.83 µM.

With `CCCc1c(CC)c(=N)c2ccccc2n1C`, the GI50 was > 100 µM in test [1]; > 100 µM in [10]; > 100 µM in test [2]; 42.6 µM in test [3]; 51.1 µM in test [4]; > 100 µM in test [5]. Besides, the GI50 in test [6] is 39.3 µM; in test [7], > 100 µM; in test [8], 34.5 µM; in [9], > 100 µM. The TGI in test [1], in [10], in test [2], in test [3], in [4] and in [5] was > 100 µM throughout. Besides, the TGI in test [6], in [7], in test [8] and in test [9] was > 100 µM each time.

As to `O=C(/C(=C\C(=O)c1cccs1)c1ccsc1)c1ccc(Br)cc1`, the TGI in [1], in test [10], in test [2], in test [3], in [4] and in test [5] was > 100 µM each time. For the same compound, the TGI in test [6], in test [7], in test [8] and in test [9] was > 100 µM in each case.
